The data set is described as follows: Water solubility of the agrochemical active compound alone at 25° C. It is filed as physicochemical.

The results in this text go back to patent US20180213771A1, “COMPOSITION, METHOD FOR PRODUCING COMPOSITION, AND PESTICIDE COMPOSITION” (Sumitomo Chemical Company, Limited, priority 2015, published 2018).

Each structure is given as a SMILES string.

In the case of `CC1CC(C)(C)c2cccc(NC(=O)c3cn(C)nc3C(F)F)c21` (centres unmarked) [agrochemical active compound A, N-(1,1,3-trimethylindan-4-yl)-1-methyl-3-difluoromethylpyrazole-4-carboxylic acid amide], the water solubility entry was “about 20 ppm”.
Next, `CCS(=O)(=O)c1cccnc1-c1nc2cc(S(=O)(=O)C(F)(F)F)ccc2o1` [agrochemical active compound B, 2-[3-(Ethanesulfonyl)pyridin-2-yl]-5-(trifluoromethanesulfonyl)benzoxazole]: “about 6 ppm”; `Cc1cccc(-n2nnn(C)c2=O)c1COc1ccn(-c2ccc(Cl)cc2)n1` [agrochemical active compound C, 1-[2-({[1-(4-Chlorophenyl)-H-pyrazol-3-yl]oxy}methyl)-3-methylphenyl]-4-methyl-5-oxo-4,5-dihydro-1H-tetrazole]: “about 0.03 ppm”.
As to `CCNc1nc(CC)c(C(=O)NC(C#N)c2cccs2)s1` (centres unmarked) [ethaboxam, reference compound], the water solubility result was “about 5 ppm”.
Take `C#CCN1C(=O)COc2cc(F)c(N3C(=O)C4=C(CCCC4)C3=O)cc21` [flumioxazin, reference compound]: the water solubility result is “about 2 ppm”.
